The experiment has as its system PTEN-null endometrial glands (latent endometrial precancers). The experiment can be described thus: Latent precancers (PTEN-null glands by immunohistochemistry) in paired endometrial biopsies before and after progestin therapy. The experiment is classed as in vivo, women. Conditions: pre versus post therapy. As to the method: Women in Northern Norway (Tromso region) with successive endometrial biopsies taken under different hormonal conditions form the three main experimental groups of this study. Clinical aspects of these patients have been published elsewhere (Vereide, et al., Gynecol Oncol 91:526-33 (2003)), but will be summarized here. […] Just under half (10 of 22 reported in results) received low dose hormonal replacement therapy as follows: norestrin 1 mg/estradiol 2mg daily (6 patients), estriol 1-2mg daily (3 patients), tibolone 2.5 mg daily (1 patient), no therapy (12 patients). All patient materials were compiled from existing pathologic tissues generated as part of routine patient care (“discarded materials”), except for the P-IUD group, which was consented in advance. […]
Paraffin sections of endometrial biopsy and curetting specimens were rehydrated, and underwent antigen retrieval by microwave before overnight (4° C.) incubation with 1:300 murine monoclonal anti-PTEN antibody 6h2.1 (Cascade Biosciences, Winchester, Mass.) as previously described (Mutter, et al, Cancer Res 61:43114 (2001)). Slides were washed, and incubated with appropriate secondary biotinylated immunoglobulin (Vectastain ABC kit, Vector Laboratories, Inc., Burlingame, Calif.) and signal detected by sequential addition of avidin peroxidase and 3,3′-diaminobenzidine. […]

In the case of `CC(=O)[C@@]1(O)CC[C@H]2[C@@H]3C[C@H](C)C4=CC(=O)CC[C@]4(C)[C@H]3CC[C@@]21C` [p-cycle, medroxyprogesterone], the “Change of latent precancers after therapy (in words)” value was “non-significant changes”.

The record behind these values is patent US7858332B2, “Chemoprevention of endometrial cancer” (The Brigham and Women's Hospital, Inc., priority 2006, dated 2010).
